Data published in the OligoGym collection.
“And” between values parts separate entries of the source, which are not always exact repeats. Identical values can stand only once. After the bases stand the sugars from the 5' end (letter, count) and the backbone: PS all phosphorothioate, else s phosphorothioate and o phosphodiester by linkage. Methylation of C is not given here. e = 2'-O-(2-methoxyethyl) (MOE); k = constrained ethyl (cEt); d = 2'-deoxy (DNA)

Target: KRAS
Details: ASO

Sequence	target mRNA inhibition (A431, 2 µM)	also measured
TAGTGATTAGGTCAAA (sugars k3 d10 k3, PS)	21%	–
TAGTGATTAGGTCAAA (sugars kkdddddddddkekek, PS)	51%	–
TAGTGATTAGGTCAAA (sugars kkddddddddkekekk, PS)	42%	–
TATAATGGTGAATATC (sugars k3 d10 k3, PS)	7%	–
TATTAGGAGTCTTTAT (sugars k3 d10 k3, PS)	13%	–
TCAACTGCATGCACCA (sugars k3 d10 k3, PS)	52%	–
TCACTTCATTGTTTAA (sugars k3 d10 k3, PS)	32%	–
TCATTACTTTTTGACA (sugars k3 d10 k3, PS)	4%	–
TCCAGTGATACTTTCA (sugars k3 d9 k3 e1, PS)	47%	–
TCCAGTGATACTTTCA (sugars k3 d10 k3, PS)	51%	–
TCCATTTATGTGACTA (sugars k3 d9 k3 e1, PS)	23%	–
TCCATTTATGTGACTA (sugars kdddddddddkekeke, PS)	15%	–
TCCATTTATGTGACTA (sugars kkddddddddddkeke, PS)	22%	–
TCCATTTATGTGACTA (sugars kkddddddddkekekk, PS)	29%	–
TCTCTATGAAAGCTCA (sugars k3 d10 k3, PS)	50%	target mRNA inhibition (A431, 0.037 µM): 61%; target mRNA inhibition (A431, 5 µM): 96% and 92%; target mRNA inhibition (NCI-H460, 0.037 µM): 49.7%
TGACTAATAGCAGTGG (sugars k3 d10 k3, PS)	58%	target mRNA inhibition (A431, 0.037 µM): 64%; target mRNA inhibition (A431, 5 µM): 96% and 93%; target mRNA inhibition (NCI-H460, 0.037 µM): 53.3%
TGATTTGTCAGCAGGA (sugars k3 d9 k3 e1, PS)	63%	target mRNA inhibition (A431, 0.185 µM): 26%; target mRNA inhibition (A431, 0.556 µM): 52%; target mRNA inhibition (A431, 1.667 µM): 70%; target mRNA inhibition (A431, 5 µM): 80%
TGATTTGTCAGCAGGA (sugars k3 d10 k3, PS)	59%	target mRNA inhibition (A431, 0.185 µM): 19% and 0%; target mRNA inhibition (A431, 0.556 µM): 58% and 36%; target mRNA inhibition (A431, 1.667 µM): 72% and 58%; target mRNA inhibition (A431, 5 µM): 81% and 74%
TGATTTGTCAGCAGGA (sugars kddddddddddkekek, PS)	47%	–
TGATTTGTCAGCAGGA (sugars kkdddddddddkekek, PS)	45%	–
TGGTGTAACATAGGTT (sugars k3 d10 k3, PS)	58%	target mRNA inhibition (A431, 0.185 µM): 0%; target mRNA inhibition (A431, 0.556 µM): 35%; target mRNA inhibition (A431, 1.667 µM): 61%; target mRNA inhibition (A431, 5 µM): 78%

Sequence	target mRNA inhibition (A431, 2 µM)	also measured
TGGTGTAACATAGGTT (sugars kkddddddddkekekk, PS)	55%	target mRNA inhibition (A431, 0.185 µM): 11%; target mRNA inhibition (A431, 0.556 µM): 33%; target mRNA inhibition (A431, 1.667 µM): 58%; target mRNA inhibition (A431, 5 µM): 68%
TGTAAATATAGCCCCA (sugars k3 d10 k3, PS)	34%	–
TGTACTAGTATGCCTT (sugars k3 d10 k3, PS)	66%	target mRNA inhibition (A431, 0.185 µM): 18% and 9%; target mRNA inhibition (A431, 1.667 µM): 61% and 43%; target mRNA inhibition (A431, 5 µM): 74% and 64%
TGTAGGGCATTTCTGA (sugars k3 d10 k3, PS)	0%	–
TGTTGAGCTATCCAAA (sugars k3 d10 k3, PS)	37%	–
TGTTTATGCAATGTTA (sugars kkdddddddddkekek, PS)	56%	target mRNA inhibition (A431, 0.185 µM): 50%; target mRNA inhibition (A431, 0.556 µM): 46%; target mRNA inhibition (A431, 1.667 µM): 69%; target mRNA inhibition (A431, 5 µM): 82%
TTAATGTCACAAGCAG (sugars k3 d10 k3, PS)	52%	–
TTACTTTTTGACAAAT (sugars k3 d10 k3, PS)	0%	–
TTAGGAGTCTTTATAG (sugars k3 d10 k3, PS)	30%	–
TTAGTGATTAGGTCAA (sugars kkddddddddddkeke, PS)	22%	–
TTCTGTCTATTCATAC (sugars k3 d10 k3, PS)	10%	–
TTGATTTGTCAGCAGG (sugars k3 d9 k3 e1, PS)	55% and 30%	–
TTGATTTGTCAGCAGG (sugars k3 d10 k3, PS)	65% and 66% and 74%	target mRNA inhibition (A431, 0.185 µM): 41%; target mRNA inhibition (A431, 0.556 µM): 60%; target mRNA inhibition (A431, 1.667 µM): 77%; target mRNA inhibition (A431, 5 µM): 87%
TTGATTTGTCAGCAGG (sugars kdddddddddkekeke, PS)	22%	–
TTGATTTGTCAGCAGG (sugars kkkdddddddddkeke, PS)	40%	–
TTGATTTGTCAGCAGG (sugars kkkddddddddkdkdk, PS)	19%	–
TTGATTTGTCAGCAGG (sugars kkkddddddddkekek, PS)	37% and 12%	–
TTGCTATAATAATCCC (sugars k3 d10 k3, PS)	39%	–
TTGTTTAAAAAAAAAA (sugars k3 d10 k3, PS)	0%	–
TTTCTGATGTGACTCA (sugars k3 d10 k3, PS)	57%	target mRNA inhibition (A431, 0.185 µM): 0%; target mRNA inhibition (A431, 0.556 µM): 23%; target mRNA inhibition (A431, 1.667 µM): 43%; target mRNA inhibition (A431, 5 µM): 60%
